Structures are written as SMILES. Some results are limits rather than exact numbers.

These results are taken from patent US20250019387A1 (Frontier Medicines Corporation, priority 0001, published 2025).

Sequence of KRAS G12C and cRAF (Ras-binding domain) interaction (P01116 other isoform, or with tags, fused parts or gaps G12C/C51S/C80L/C118S): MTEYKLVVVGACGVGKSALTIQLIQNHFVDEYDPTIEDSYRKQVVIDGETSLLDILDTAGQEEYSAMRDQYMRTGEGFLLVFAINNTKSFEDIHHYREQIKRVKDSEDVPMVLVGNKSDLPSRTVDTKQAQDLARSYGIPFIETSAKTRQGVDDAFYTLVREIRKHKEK

This experiment concerns the target KRAS G12C and cRAF (Ras-binding domain) interaction (Homo sapiens (Human), UniProt P01116, C118S/C51S/C80L/G12C). Kind of experiment: Inhibition of KRAS G12C and cRAF binding (AlphaScreen). The settings on record: GMPPNP-loaded KRAS G12C, 19-20 hours incubation with compound; read-out: IC50 (Inhibition of KRAS G12C and cRAF Binding). The essentials: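 Compounds (DMSO) preincubated 19-20 h at room temperature, then RBD with streptavidin donor and glutathione acceptor beads added in 25 mM Hepes pH 7.4, 150 mM NaCl, 5 mM MgCl2, 0.01% Triton X-100, 2% DMSO for 60-90 min. Emission 570 nm (excitation 680 nm); IC50 by 4-parameter fit. Counter-screen used biotin-AviTag-GST instead of RBD.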
For orientation: Bead proximity is the source of the signal in Alpha formats.
Take `CN1CC(C)(C#CC(=O)N2CC[C@@H](N(C)c3nc(OC[C@@]45CCCN4C[C@H](F)C5)nc4c(F)c(-c5cccc6cccc(Cl)c56)ncc34)C2)C1` [Example 242, 1-((R)-3-((7-(8-chloronaphthalen-1-yl)-8-fluoro-2-(((2R,7aS)-2-fluorohexahydro-1H-pyrrolizin-7a-yl)methoxy)pyrido[4,3-d]pyrimidin-4-yl)(methyl)amino)pyrrolidin-1-yl)-3-(1,3-dimethylazetidin-3-yl)prop-2-yn-1-one]: the IC50 (usually the concentration at which inhibition is half-maximal) was < 10 nM.
In the case of `Cc1cc(/C=C/C(=O)N2CCN(c3nc(OC[C@@]45CCCN4C[C@H](F)C5)nc4c(F)c(-c5cccc6cccc(Cl)c56)ncc34)CC2)nc(C)n1` [Example 243, (E)-1-(4-(7-(8-chloronaphthalen-1-yl)-8-fluoro-2-(((2R,7aS)-2-fluorotetrahydro-1H-pyrrolizin-7a(5H)-yl)methoxy)pyrido[4,3-d]pyrimidin-4-yl)piperazin-1-yl)-3-(2,6-dimethylpyrimidin-4-yl)prop-2-en-1-one], the half-inhibitory concentration (IC50) was 100 to 500 nM.
The figure for `Cc1ncc(F)c(/C=C/C(=O)N2CC[C@@H](N(C)c3nc(OCC45CCCN4CCC5)nc4c(F)c(-c5cccc6ccc(F)c(Cl)c56)ncc34)C2)n1` [Example 244, (R,E)-1-(3-((7-(8-chloro-7-fluoronaphthalen-1-yl)-8-fluoro-2-((tetrahydro-1H-pyrrolizin-7a(5H)-yl)methoxy)pyrido[4,3-d]pyrimidin-4-yl)(methyl)amino)pyrrolidin-1-yl)-3-(5-fluoro-2-methylpyrimidin-4-yl)prop-2-en-1-one] is 100 to 500 nM.
With `C=CC(=O)N1CC(CN(C)c2nc(OC[C@@]34CCCN3C[C@H](F)C4)nc3c(F)c(-c4cccc5ccc(F)c(F)c45)ncc23)C1` [Example 246, 1-(3-(((7-(7,8-difluoronaphthalen-1-yl)-8-fluoro-2-(((2R,7aS)-2-fluorotetrahydro-1H-pyrrolizin-7a(5H)-yl)methoxy)pyrido[4,3-d]pyrimidin-4-yl)(methyl)amino)methyl)azetidin-1-yl)prop-2-en-1-one], the IC50 is 10 to 100 nM.
The figure for `Cc1ncc(F)c(/C=C/C(=O)N2CC[C@@H](N(C)c3nc(OCC45CCCN4CCC5)nc4c(F)c(-c5cccc6cccc(Cl)c56)ncc34)C2)n1` [Example 249, (R,E)-1-(3-((7-(8-chloronaphthalen-1-yl)-8-fluoro-2-((tetrahydro-1H-pyrrolizin-7a(5H)-yl)methoxy)pyrido[4,3-d]pyrimidin-4-yl)(methyl)amino)pyrrolidin-1-yl)-3-(5-fluoro-2-methylpyrimidin-4-yl)prop-2-en-1-one] is 10 to 100 nM; for `C=CC(=O)N1CC[C@@H](N(CC2CC2)c2nc(OC[C@@]34CCCN3C[C@H](F)C4)nc3c(F)c(-c4cccc5cccc(Cl)c45)ncc23)C1` [Example 250, 1-((R)-3-((7-(8-chloronaphthalen-1-yl)-8-fluoro-2-(((2R,7aS)-2-fluorohexahydro-1H-pyrrolizin-7a-yl)methoxy)pyrido[4,3-d]pyrimidin-4-yl)(cyclopropylmethyl)amino)pyrrolidin-1-yl)prop-2-en-1-one] it is 100 to 500 nM.
In the case of `CN(c1nc(OC[C@@]23CCCN2C[C@H](F)C3)nc2c(F)c(-c3cccc4ccc(F)c(Cl)c34)ncc12)[C@@H]1CCN(C(=O)/C=C/C2CCCO2)C1` (stereo partly drawn) [Example 252, (E)-1-((R)-3-((7-(8-chloro-7-fluoronaphthalen-1-yl)-8-fluoro-2-(((2R,7aS)-2-fluorotetrahydro-1H-pyrrolizin-7a(5H)-yl)methoxy)pyrido[4,3-d]pyrimidin-4-yl)(methyl)amino)pyrrolidin-1-yl)-3-(tetrahydrofuran-2-yl)prop-2-en-1-one], the IC50 lay within 100 to 500 nM.
The figure for `C=CC(=O)N1CC[C@@H](N(C)c2nc(OCC34CCCN3CCC4)nc3c(F)c(-c4cccc5ccc(F)c(CC)c45)ncc23)C1` [Example 253, (R)-1-(3-((7-(8-ethyl-7-fluoronaphthalen-1-yl)-8-fluoro-2-((tetrahydro-1H-pyrrolizin-7a(5H)-yl)methoxy)pyrido[4,3-d]pyrimidin-4-yl)(methyl)amino)pyrrolidin-1-yl)prop-2-en-1-one] is 100 to 500 nM; for `C=CC(=O)N1CC(CN(C)c2nc(OC[C@@]34CCCN3C[C@H](F)C4)nc3c(F)c(-c4cccc5ccc(F)c(CC)c45)ncc23)C1` [Example 254, 1-(3-(((7-(8-ethyl-7-fluoronaphthalen-1-yl)-8-fluoro-2-(((2R,7aS)-2-fluorohexahydro-1H-pyrrolizin-7a-yl)methoxy)pyrido[4,3-d]pyrimidin-4-yl)(methyl)amino)methyl)azetidin-1-yl)prop-2-en-1-one] it is 10 to 100 nM.
The value for `Cc1nccc(/C=C/C(=O)N2CCC[C@H](N(C)c3nc(OC[C@@]45CCCN4C[C@H](F)C5)nc4c(F)c(-c5cccc6cccc(Cl)c56)ncc34)C2)n1` [Example 260, (E)-1-((S)-3-((7-(8-chloronaphthalen-1-yl)-8-fluoro-2-(((2R,7aS)-2-fluorotetrahydro-1H-pyrrolizin-7a(5H)-yl)methoxy)pyrido[4,3-d]pyrimidin-4-yl)(methyl)amino)piperidin-1-yl)-3-(2-methylpyrimidin-4-yl)prop-2-en-1-one] was 100 to 500 nM; that for `Cc1nccc(/C=C/C(=O)N2CCC(Nc3nc(OC[C@@]45CCCN4C[C@H](F)C5)nc4c(F)c(-c5cccc6cccc(Cl)c56)ncc34)CC2)n1` [Example 261, (E)-1-(4-((7-(8-chloronaphthalen-1-yl)-8-fluoro-2-(((2R,7aS)-2-fluorotetrahydro-1H-pyrrolizin-7a(5H)-yl)methoxy)pyrido[4,3-d]pyrimidin-4-yl)amino)piperidin-1-yl)-3-(2-methylpyrimidin-4-yl)prop-2-en-1-one] was > 500 nM; that for `Cc1nccc(/C=C/C(=O)N2CCC[C@@H](Nc3nc(OC[C@@]45CCCN4C[C@H](F)C5)nc4c(F)c(-c5cccc6cccc(Cl)c56)ncc34)C2)n1` [Example 262, (E)-1-((R)-3-((7-(8-chloronaphthalen-1-yl)-8-fluoro-2-(((2R,7aS)-2-fluorotetrahydro-1H-pyrrolizin-7a(5H)-yl)methoxy)pyrido[4,3-d]pyrimidin-4-yl)amino)piperidin-1-yl)-3-(2-methylpyrimidin-4-yl)prop-2-en-1-one] was 100 to 500 nM.
Turning to `C=CC(=O)N1CC[C@@H](N(C)c2nc(OC[C@@]34CCCN3C[C@H](F)C4)nc3c(F)c(-c4cccc5cc(Cl)cc(Cl)c45)ncc23)C1` [Example 263, 1-((R)-3-((7-(6,8-dichloronaphthalen-1-yl)-8-fluoro-2-(((2R,7aS)-2-fluorotetrahydro-1H-pyrrolizin-7a(5H)-yl)methoxy)pyrido[4,3-d]pyrimidin-4-yl)(methyl)amino)pyrrolidin-1-yl)prop-2-en-1-one], the IC50 was > 500 nM.
The figure for `C=CC(=O)N1CC[C@@H](N(CCC#N)c2nc(OC[C@@]34CCCN3C[C@H](F)C4)nc3c(F)c(-c4cccc5cccc(Cl)c45)ncc23)C1` [Example 264, 3-(((R)-1-acryloylpyrrolidin-3-yl)(7-(8-chloronaphthalen-1-yl)-8-fluoro-2-(((2R,7aS)-2-fluorohexahydro-1H-pyrrolizin-7a-yl)methoxy)pyrido[4,3-d]pyrimidin-4-yl)amino)propanenitrile] is 100 to 500 nM; for `C=CC(=O)N1CC[C@@H](N(C)c2nc(OCC34CCCN3CCC4)nc3c(F)c(-c4cccc5ccc(F)c(F)c45)ncc23)C1` [Example 265, (R)-1-(3-((7-(7,8-difluoronaphthalen-1-yl)-8-fluoro-2-((tetrahydro-1H-pyrrolizin-7a(5H)-yl)methoxy)pyrido[4,3-d]pyrimidin-4-yl)(methyl)amino)pyrrolidin-1-yl)prop-2-en-1-one] it is 10 to 100 nM.
The value for `C=CC(=O)N1CC[C@@H](N(C)c2nc(OC[C@@]34CCCN3C[C@H](F)C4)nc3c(F)c(-c4cccc5cc(F)c(F)cc45)ncc23)C1` [Example 266, 1-((R)-3-((7-(6,7-difluoronaphthalen-1-yl)-8-fluoro-2-(((2R,7aS)-2-fluorotetrahydro-1H-pyrrolizin-7a(5H)-yl)methoxy)pyrido[4,3-d]pyrimidin-4-yl)(methyl)amino)pyrrolidin-1-yl)prop-2-en-1-one] was 100 to 500 nM.
Turning to `CN(c1nc(OC[C@@]23CCCN2C[C@H](F)C3)nc2c(F)c(-c3cccc4cccc(Cl)c34)ncc12)[C@@H]1CCN(C(=O)C=C2CCC2)C1` [Example 267, 1-((R)-3-((7-(8-chloronaphthalen-1-yl)-8-fluoro-2-(((2R,7aS)-2-fluorotetrahydro-1H-pyrrolizin-7a(5H)-yl)methoxy)pyrido[4,3-d]pyrimidin-4-yl)(methyl)amino)pyrrolidin-1-yl)-2-cyclobutylideneethan-1-one], the IC50 is 100 to 500 nM.
The value for `C=CC(=O)N1CC[C@@H](N(C)c2nc(OC[C@@]34CCCN3C[C@H](F)C4)nc3c(F)c(-c4cccc5cc(F)cc(F)c45)ncc23)C1` [Example 268, 1-((R)-3-((7-(6,8-difluoronaphthalen-1-yl)-8-fluoro-2-(((2R,7aS)-2-fluorohexahydro-1H-pyrrolizin-7a-yl)methoxy)pyrido[4,3-d]pyrimidin-4-yl)(methyl)amino)pyrrolidin-1-yl)prop-2-en-1-one] was 100 to 500 nM; that for `C=CC(=O)N1CC[C@@H](N(C)c2nc(OCC34CCCN3CCC4)nc3c(F)c(-c4cccc5c(F)cc(F)cc45)ncc23)C1` [Example 269, (R)-1-(3-((7-(5,7-difluoronaphthalen-1-yl)-8-fluoro-2-((hexahydro-1H-pyrrolizin-7a-yl)methoxy)pyrido[4,3-d]pyrimidin-4-yl)(methyl)amino)pyrrolidin-1-yl)prop-2-en-1-one] was 100 to 500 nM.
